{"source": "paper PMC11218446", "about": "“Antibacterial efficacy and membrane mechanism of action of the Serratia-derived non-ionic lipopeptide, serrawettin W2-FL10” (Microbiology Spectrum, 2024)", "format_in_all_cases": "cell-based, Staphylococcus aureus", "key": {"three S. aureus strains": {"test_system": "three S. aureus strains", "experiment": "Time-kill kinetics, summary", "settings": "at MIC", "experimental": "Time-kill assays were performed for W2-FL10 against S. aureus ATCC 25923, S. aureus RN4220, and MRSA Xen 30 to determine the bacteriostatic (suppresses growth) or bactericidal (>3 log reduction in CFUs) activity of the compound, allowing for the determination of cell survival percentage per minute ([19]).\nTo determine the kill rate of the lipopeptide, exponentially growing S. aureus strains were prepared as described in the “Antibacterial activity: broth microdilution assay” section (OD600 = 0.4, ~10^7 CFU/mL; 1:20 dilution was conducted to obtain ~10^5 CFU/mL) ([24], [55]). Thereafter, 200 µL of the bacterial suspension (in MHB) was dispensed into a clear 96-well plate containing 12.5 or 25 µg/mL of W2-FL10, and plates were incubated at 37°C. Aliquots of 20 µL were collected at different time intervals (0, 1, 2, 4, 8, and 24 h), diluted in 180 µL PBS in a clear 96-well plate (from 10^−2 to 10^−8), and 100 µL of the respective dilution was spread onto LB agar plates. Undiluted samples of 20 µL were spot-plated onto LB agar to confirm the absence of cells at 8 and/or 24 h. The LB agar plates were then incubated overnight at 37°C and the CFU/mL was determined. A positive control of bacterial cells without peptide and a negative control with only LB were included. All the tests were performed in triplicate, with independent duplicates. […]"}, "MRSA Xen 30": {"test_system": "MRSA Xen 30", "settings": "for ICF / IC50 ± SE / MIC ± SE: resazurin", "text": "(§1) Based on the broth microdilution assay results for W2-FL10 and melittin, the S. aureus ATCC 25923 (reference), S. aureus RN4220 (laboratory; MSSA), or methicillin-resistant S. aureus Xen 30 (clinical; MRSA) strains were selected for further antibacterial studies. Resazurin (also referred to as Alamar Blue) is a blue, non-fluorescent dye that can be reduced to resorufin (a pink, fluorescent compound) by metabolically active cells. The dye can thus be used as a quantitative indicator of cell viability ([52]). Therefore, a broth microdilution assay coupled with resazurin [prepared to a stock solution of 0.3 mg/mL in PBS; ([53])] was used to determine the influence of cations (Mg^2+ and Ca^2+), commercial LTA of S. aureus and DOPG on the potency of W2-FL10 against S. aureus ATCC 25923, S. aureus RN4220 and MRSA Xen 30 as described by Wu et al. ([54]).\n(§2) For investigating the influence of cations on the antibacterial potency of W2-FL10, a clear 96-well plate was prepared with W2-FL10 and air dried as described in the “Antibacterial activity: broth microdilution assay” section. The S. aureus strains were inoculated into MHB or CA-MHB, grown to mid-log phase (OD600 of 0.5–0.6), and diluted to OD600 of 0.4. A 1:20 dilution of the test strain (final concentration of ∼10^5 CFU/mL) was prepared and 100 µL was dispensed into each well (final concentration of W2-FL10 at 1.56 to 25 µg/mL). Sterile broth (i.e., MHB or CA-MHB) and the OD-adjusted inoculum were included in the assay as a positive control, while sterile broth (i.e., MHB or CA-MHB) was included as a sterility control. The plate was incubated for 24 h at 37°C.\n(§3) Similarly, the possible interaction and binding of LTA of S. aureus and DOPG (both at 1 mg/mL in 10% EtOH) with the lipopeptide W2-FL10 was investigated ([54]). Briefly, a clear 96-well plate was prepared with W2-FL10 and air dried as described in the “Antibacterial activity: broth microdilution assay” section. Thereafter, 10 µL of LTA from S. aureus or DOPG was dispensed into the respective wells. The S. aureus strains were grown to mid-log phase in MHB (OD600 of 0.5–0.6) and diluted to OD600 of 0.4. A 1:20 dilution of test strain (final concentration of ∼10^5 CFU/mL) was prepared, 100 µL was dispensed into each well (final concentration of W2-FL10 at 3.13 to 100 µg/mL), and the plate was incubated for 24 h at 37°C. Sterile broth, the OD-adjusted inoculum, and the respective LTA or DOPG were included in the assay as a positive control, while sterile broth and LTA or DOPG were included as a sterility control.\n(§4) After incubation of both plates, 10 µL of resazurin (0.3 mg/mL) was added to each well and the plate was incubated at 37°C for 1 h. Fluorometric readings of the experimental plates were conducted using a Tecan Spark 10M Multimode Microplate Reader at 560 nm excitation wavelength and 590 nm emission wavelength. For all resazurin assays, the percentage inhibition was calculated as described by van Rensburg et al. ([53]). All experiments were performed in triplicate, with independent biological duplicates. […] Dose-response curves (nonlinear regression using equation 1) were processed as described by Rautenbach et al. ([17]) (also see description above), and IC50 values were deduced from the best-fit sigmoidal curves (R^2 ≥ 0.98). Statistical analyses were done by comparing W2-FL10 IC50, in the presence of Ca^2+ and Mg^2+, in the presence of DOPG, and in the presence of LTA toward the control condition each of the three S. aureus strains using one-way analysis of variance (ANOVA) with Bonferroni’s post hoc test."}, "S. aureus RN4220": {"test_system": "S. aureus RN4220", "settings": "for ICF / IC50 ± SE / MIC ± SE: resazurin", "text": "as §1, §2, §3, §4"}, "[1]": {"settings": "LTA 100 µg/mL vs control, P < 0.001"}, "[2]": {"settings": "LTA of S. aureus 100 µg/mL, n = 3"}}, "note": "Read-outs that look alike come from different tables or passages of the source.", "data": [{"smiles": "CCCCCCCC1CC(=O)N[C@H](CC(C)C)C(=O)N[C@@H](CO)C(=O)N[C@@H]([C@@H](C)O)C(=O)N[C@H](Cc2ccccc2)C(=O)N[C@@H](CC(C)C)C(=O)O1", "note": "(stereo partly drawn) [W2-FL10, serrawettin W2-FL10]", "values": [{"measurement": "time within which >90% bactericidal action occurred", "setting": "three S. aureus strains", "value": "4 to 8", "unit": "h"}, {"measurement": "increase in the IC50 in the presence of LTA", "setting": "MRSA Xen 30; [1]", "value": "twofold"}, {"measurement": "ICF", "setting": "MRSA Xen 30; Ca2+ and Mg2+ (CA-MHB)", "value": 1.7}, {"measurement": "IC50 ± SE", "setting": "MRSA Xen 30; Ca2+ and Mg2+ (CA-MHB), n = 4", "value": "12.2±0.2 (5) 9.5±1.5 (4) 40.6±2.0 (4) 24.6±0.1 (4) µg/mL"}, {"measurement": "MIC ± SE", "setting": "MRSA Xen 30; Ca2+ and Mg2+ (CA-MHB), n = 4", "value": "12.5 ± 0.0", "unit": "µg/mL"}, {"measurement": "ICF", "setting": "MRSA Xen 30; Control (MHB)", "value": 3.4}, {"measurement": "MIC ± SE", "setting": "MRSA Xen 30; Control (MHB), 24 h 37°C, n = 5", "value": "22.5 ± 2.5", "unit": "µg/mL"}, {"measurement": "IC50 ± SE", "setting": "MRSA Xen 30; Control (MHB), n = 5", "value": 12.2, "unit": "µg/mL"}, {"measurement": "ICF", "setting": "MRSA Xen 30; DOPG 100 µg/mL", "value": 2.4}, {"measurement": "IC50 ± SE", "setting": "MRSA Xen 30; DOPG 100 µg/mL, n = 4", "value": 40.6, "unit": "µg/mL"}, {"measurement": "MIC ± SE", "setting": "MRSA Xen 30; DOPG 100 µg/mL, n = 4", "value": "62.5 ± 12.5", "unit": "µg/mL"}, {"measurement": "ICF", "setting": "MRSA Xen 30; LTA 100 µg/mL", "value": 4.1}, {"measurement": "IC50 ± SE", "setting": "MRSA Xen 30; LTA 100 µg/mL, n = 4", "value": 24.6, "unit": "µg/mL"}, {"measurement": "MIC ± SE", "setting": "MRSA Xen 30; [2]", "value": "50.0 ± 17.7", "unit": "µg/mL"}, {"measurement": "increase in the IC50 in the presence of LTA", "setting": "S. aureus RN4220; [1]", "value": "twofold"}, {"measurement": "ICF", "setting": "S. aureus RN4220; Ca2+ and Mg2+ (CA-MHB)", "value": 6.3}, {"measurement": "IC50 ± SE", "setting": "S. aureus RN4220; Ca2+ and Mg2+ (CA-MHB), n = 3", "value": 10, "unit": "µg/mL"}, {"measurement": "MIC ± SE", "setting": "S. aureus RN4220; Ca2+ and Mg2+ (CA-MHB), n = 3", "value": "25.0 ± 0.0", "unit": "µg/mL"}, {"measurement": "ICF", "setting": "S. aureus RN4220; Control (MHB)", "value": 3.6}, {"measurement": "MIC ± SE", "setting": "S. aureus RN4220; Control (MHB), 24 h 37°C, n = 4", "value": "25.0 ± 0.0", "unit": "µg/mL"}, {"measurement": "IC50 ± SE", "setting": "S. aureus RN4220; Control (MHB), n = 4", "value": 13.2, "unit": "µg/mL"}, {"measurement": "ICF", "setting": "S. aureus RN4220; DOPG 100 µg/mL", "value": 2.2}, {"measurement": "IC50 ± SE", "setting": "S. aureus RN4220; DOPG 100 µg/mL, n = 3", "value": 44.6, "unit": "µg/mL"}, {"measurement": "MIC ± SE", "setting": "S. aureus RN4220; DOPG 100 µg/mL, n = 3", "value": "66.7 ± 16.7", "unit": "µg/mL"}, {"measurement": "ICF", "setting": "S. aureus RN4220; LTA 100 µg/mL", "value": 3.5}, {"measurement": "IC50 ± SE", "setting": "S. aureus RN4220; LTA 100 µg/mL, n = 3", "value": 26.8, "unit": "µg/mL"}, {"measurement": "MIC ± SE", "setting": "S. aureus RN4220; [2]", "value": "50.0 ± 0.0", "unit": "µg/mL"}]}]}
